Measured values from ChEMBL document CHEMBL5465560, “Selectivity Literature for EUbOPEN Chemogenomic Library” (2024).
One block for each compound: values may come before it.

What was measured:
[1] = target: Tyrosine-protein kinase JAK2 (Homo sapiens, UniProt O60674); assay: Selectivity interaction (KinomeScan (DiscoverX)) EUB0001079a JAK2; conditions: at 1 µM
[2] = target: T1, Serine/threonine-protein kinase Nek1 (Homo sapiens) (UniProt Q96PY6); assay: Selectivity interaction (KinomeScan (DiscoverX)) EUB0000618a NEK1; conditions: at 10 µM
T1 sequence (whole entry): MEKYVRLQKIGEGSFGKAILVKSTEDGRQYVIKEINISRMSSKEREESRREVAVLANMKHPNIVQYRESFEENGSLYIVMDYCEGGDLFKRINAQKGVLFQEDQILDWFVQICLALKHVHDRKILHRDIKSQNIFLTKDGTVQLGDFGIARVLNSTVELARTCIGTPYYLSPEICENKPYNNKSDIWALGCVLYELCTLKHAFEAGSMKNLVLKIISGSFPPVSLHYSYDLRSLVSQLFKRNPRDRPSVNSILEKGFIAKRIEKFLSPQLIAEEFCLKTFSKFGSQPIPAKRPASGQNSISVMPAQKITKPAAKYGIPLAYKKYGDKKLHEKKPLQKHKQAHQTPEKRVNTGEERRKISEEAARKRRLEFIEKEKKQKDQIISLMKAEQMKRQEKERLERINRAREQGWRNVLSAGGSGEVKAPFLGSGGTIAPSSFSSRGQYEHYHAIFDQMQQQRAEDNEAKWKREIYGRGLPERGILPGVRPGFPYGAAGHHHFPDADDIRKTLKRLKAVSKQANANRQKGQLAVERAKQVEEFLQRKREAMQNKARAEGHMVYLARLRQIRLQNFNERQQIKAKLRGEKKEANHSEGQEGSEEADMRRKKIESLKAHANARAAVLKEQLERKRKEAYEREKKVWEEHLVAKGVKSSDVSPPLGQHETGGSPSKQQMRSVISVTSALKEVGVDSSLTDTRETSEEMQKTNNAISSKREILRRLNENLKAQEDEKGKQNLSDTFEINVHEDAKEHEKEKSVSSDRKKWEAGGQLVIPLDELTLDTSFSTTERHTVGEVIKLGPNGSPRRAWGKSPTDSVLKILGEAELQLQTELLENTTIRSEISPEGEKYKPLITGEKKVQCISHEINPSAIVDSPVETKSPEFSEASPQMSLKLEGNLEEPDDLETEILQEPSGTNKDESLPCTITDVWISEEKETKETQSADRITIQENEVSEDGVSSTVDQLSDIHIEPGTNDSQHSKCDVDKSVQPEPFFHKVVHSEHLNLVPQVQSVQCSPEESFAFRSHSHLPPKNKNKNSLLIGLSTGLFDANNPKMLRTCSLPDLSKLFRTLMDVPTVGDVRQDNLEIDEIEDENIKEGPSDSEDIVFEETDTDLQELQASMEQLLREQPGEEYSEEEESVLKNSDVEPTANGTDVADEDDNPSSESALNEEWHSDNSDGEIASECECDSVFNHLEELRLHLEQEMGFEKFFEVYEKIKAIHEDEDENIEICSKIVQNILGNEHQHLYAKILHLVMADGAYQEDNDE

[3] = target: T2, Myosin light chain kinase family member 4 (Homo sapiens) (UniProt Q86YV6); assay: Selectivity interaction (KinomeScan (DiscoverX)) EUB0000607a MYLK4; conditions: at 10 µM
T2 sequence (whole entry): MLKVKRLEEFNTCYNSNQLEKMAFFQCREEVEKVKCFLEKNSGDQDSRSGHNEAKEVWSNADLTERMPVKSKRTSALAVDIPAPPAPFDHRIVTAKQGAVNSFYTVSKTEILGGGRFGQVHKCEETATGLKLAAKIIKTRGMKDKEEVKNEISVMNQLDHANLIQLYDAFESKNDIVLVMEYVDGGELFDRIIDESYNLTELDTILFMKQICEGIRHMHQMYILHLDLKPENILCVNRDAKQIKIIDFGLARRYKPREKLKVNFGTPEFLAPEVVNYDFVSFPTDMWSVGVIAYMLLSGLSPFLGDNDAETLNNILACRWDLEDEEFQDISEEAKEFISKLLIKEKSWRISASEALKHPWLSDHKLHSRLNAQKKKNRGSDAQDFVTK

[4] = target: Protein kinase C delta type (Homo sapiens) (UniProt Q05655); assay: Selectivity interaction (KinomeScan (DiscoverX)) EUB0000607a PRKCD; conditions: at 10 µM
[5] = target: Dual specificity protein kinase CLK2 (Homo sapiens, UniProt P49760); assay: Selectivity interaction (KinomeScan (DiscoverX)) EUB0000045b CLK2
[6] = target: Wee1-like protein kinase 2 (Homo sapiens) (UniProt P0C1S8); assay: Selectivity interaction (KinomeScan (DiscoverX)) EUB0000595a WEE2; conditions: at 10 µM
[7] = target: Cyclin-dependent kinase 2 (Homo sapiens, UniProt P24941); conditions: at 10 µM
[8] = target: Serine/threonine-protein kinase 38-like (Homo sapiens) (UniProt Q9Y2H1); assay: Selectivity interaction (ActivX KiNativ screen (kinase selectivity in THP-1 cell lysates)) EUB0000639a STK38L; type: subcellular; conditions: lysate, at 0.01 µM
[9] = target: Tyrosine-protein kinase SYK (Homo sapiens, UniProt P43405); assay: Selectivity interaction (ActivX KiNativ screen (kinase selectivity in THP-1 cell lysates)) EUB0000639a SYK; type: subcellular; conditions: lysate, at 5 µM
[10] = target: T3, Serine/threonine-protein kinase 3 (Homo sapiens) (UniProt Q13188); assay: Selectivity interaction (ProQinase) EUB0000171b STK3
T3 sequence (whole entry): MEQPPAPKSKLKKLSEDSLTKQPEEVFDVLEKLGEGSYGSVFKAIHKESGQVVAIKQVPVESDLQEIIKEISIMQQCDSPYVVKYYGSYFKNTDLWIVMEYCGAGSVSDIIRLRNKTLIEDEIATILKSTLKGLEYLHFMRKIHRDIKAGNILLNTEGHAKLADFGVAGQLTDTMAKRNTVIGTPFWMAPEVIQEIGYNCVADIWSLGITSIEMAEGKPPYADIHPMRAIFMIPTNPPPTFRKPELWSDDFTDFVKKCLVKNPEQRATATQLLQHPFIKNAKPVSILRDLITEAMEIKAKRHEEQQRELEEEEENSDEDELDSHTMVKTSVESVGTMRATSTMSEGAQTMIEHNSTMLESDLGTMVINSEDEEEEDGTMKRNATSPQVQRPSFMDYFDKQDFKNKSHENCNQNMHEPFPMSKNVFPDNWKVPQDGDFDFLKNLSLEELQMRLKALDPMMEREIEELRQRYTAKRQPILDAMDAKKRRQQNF

[11] = target: Serine/threonine-protein kinase pim-1 (Homo sapiens, UniProt P11309); assay: Selectivity interaction (KinomeScan (DiscoverX)) EUB0000666a PIM1; conditions: at 10 µM
[12] = target: Mitogen-activated protein kinase kinase kinase 10 (Homo sapiens) (UniProt Q02779); assay: Selectivity interaction (KinomeScan (DiscoverX)) EUB0000092b MAP3K10; conditions: at 10 µM
Chain of Mitogen-activated protein kinase kinase kinase 10 (Homo sapiens) (Q02779 whole entry, looked up): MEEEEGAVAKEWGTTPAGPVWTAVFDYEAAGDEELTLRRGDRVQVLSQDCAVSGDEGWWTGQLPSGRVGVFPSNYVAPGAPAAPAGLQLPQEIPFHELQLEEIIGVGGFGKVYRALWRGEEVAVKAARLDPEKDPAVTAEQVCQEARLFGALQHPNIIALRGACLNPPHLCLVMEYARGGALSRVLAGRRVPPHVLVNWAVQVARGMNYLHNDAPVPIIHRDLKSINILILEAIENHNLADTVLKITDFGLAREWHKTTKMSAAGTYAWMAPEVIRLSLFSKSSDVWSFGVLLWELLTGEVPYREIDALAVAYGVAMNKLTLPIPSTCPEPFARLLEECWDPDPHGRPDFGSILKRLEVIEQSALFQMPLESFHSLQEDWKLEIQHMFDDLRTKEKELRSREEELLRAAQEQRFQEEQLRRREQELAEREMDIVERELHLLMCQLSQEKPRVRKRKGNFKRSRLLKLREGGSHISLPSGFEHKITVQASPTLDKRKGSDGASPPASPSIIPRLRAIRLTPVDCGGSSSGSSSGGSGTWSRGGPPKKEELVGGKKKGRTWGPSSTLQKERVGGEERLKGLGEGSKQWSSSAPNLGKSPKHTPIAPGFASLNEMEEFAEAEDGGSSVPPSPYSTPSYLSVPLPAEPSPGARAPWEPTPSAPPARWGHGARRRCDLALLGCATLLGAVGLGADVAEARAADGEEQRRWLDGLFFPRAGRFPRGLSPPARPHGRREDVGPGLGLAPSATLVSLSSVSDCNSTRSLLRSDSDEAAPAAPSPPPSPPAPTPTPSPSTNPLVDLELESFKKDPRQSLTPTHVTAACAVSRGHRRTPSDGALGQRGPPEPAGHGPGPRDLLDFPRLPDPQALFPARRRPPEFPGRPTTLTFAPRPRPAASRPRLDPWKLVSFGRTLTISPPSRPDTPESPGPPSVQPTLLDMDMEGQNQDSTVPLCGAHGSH

Chain of Dual specificity protein kinase CLK2 (P49760 whole entry, looked up): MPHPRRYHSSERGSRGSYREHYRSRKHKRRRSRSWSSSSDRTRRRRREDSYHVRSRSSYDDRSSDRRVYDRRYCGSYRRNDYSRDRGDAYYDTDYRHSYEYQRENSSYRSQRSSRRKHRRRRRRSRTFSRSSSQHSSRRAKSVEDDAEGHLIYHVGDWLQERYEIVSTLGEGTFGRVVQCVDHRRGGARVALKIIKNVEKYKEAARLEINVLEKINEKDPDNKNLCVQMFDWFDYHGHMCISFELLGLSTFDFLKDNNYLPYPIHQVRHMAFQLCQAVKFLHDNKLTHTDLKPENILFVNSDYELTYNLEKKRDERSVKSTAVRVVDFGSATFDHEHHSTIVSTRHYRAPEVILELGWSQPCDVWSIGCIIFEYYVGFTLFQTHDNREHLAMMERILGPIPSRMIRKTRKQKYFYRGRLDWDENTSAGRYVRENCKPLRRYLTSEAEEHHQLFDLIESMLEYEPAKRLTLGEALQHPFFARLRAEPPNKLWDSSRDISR
Chain of Serine/threonine-protein kinase pim-1 (P11309 whole entry, looked up): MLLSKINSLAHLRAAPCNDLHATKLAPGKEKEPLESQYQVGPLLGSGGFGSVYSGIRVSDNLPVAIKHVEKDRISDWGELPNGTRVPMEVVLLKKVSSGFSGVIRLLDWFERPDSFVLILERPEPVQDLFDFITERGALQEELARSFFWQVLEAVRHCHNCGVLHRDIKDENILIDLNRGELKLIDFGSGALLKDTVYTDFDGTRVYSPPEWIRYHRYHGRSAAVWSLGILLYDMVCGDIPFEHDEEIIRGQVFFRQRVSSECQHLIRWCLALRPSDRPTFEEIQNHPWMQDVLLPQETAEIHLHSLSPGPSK
Chain of Tyrosine-protein kinase JAK2 (O60674 whole entry): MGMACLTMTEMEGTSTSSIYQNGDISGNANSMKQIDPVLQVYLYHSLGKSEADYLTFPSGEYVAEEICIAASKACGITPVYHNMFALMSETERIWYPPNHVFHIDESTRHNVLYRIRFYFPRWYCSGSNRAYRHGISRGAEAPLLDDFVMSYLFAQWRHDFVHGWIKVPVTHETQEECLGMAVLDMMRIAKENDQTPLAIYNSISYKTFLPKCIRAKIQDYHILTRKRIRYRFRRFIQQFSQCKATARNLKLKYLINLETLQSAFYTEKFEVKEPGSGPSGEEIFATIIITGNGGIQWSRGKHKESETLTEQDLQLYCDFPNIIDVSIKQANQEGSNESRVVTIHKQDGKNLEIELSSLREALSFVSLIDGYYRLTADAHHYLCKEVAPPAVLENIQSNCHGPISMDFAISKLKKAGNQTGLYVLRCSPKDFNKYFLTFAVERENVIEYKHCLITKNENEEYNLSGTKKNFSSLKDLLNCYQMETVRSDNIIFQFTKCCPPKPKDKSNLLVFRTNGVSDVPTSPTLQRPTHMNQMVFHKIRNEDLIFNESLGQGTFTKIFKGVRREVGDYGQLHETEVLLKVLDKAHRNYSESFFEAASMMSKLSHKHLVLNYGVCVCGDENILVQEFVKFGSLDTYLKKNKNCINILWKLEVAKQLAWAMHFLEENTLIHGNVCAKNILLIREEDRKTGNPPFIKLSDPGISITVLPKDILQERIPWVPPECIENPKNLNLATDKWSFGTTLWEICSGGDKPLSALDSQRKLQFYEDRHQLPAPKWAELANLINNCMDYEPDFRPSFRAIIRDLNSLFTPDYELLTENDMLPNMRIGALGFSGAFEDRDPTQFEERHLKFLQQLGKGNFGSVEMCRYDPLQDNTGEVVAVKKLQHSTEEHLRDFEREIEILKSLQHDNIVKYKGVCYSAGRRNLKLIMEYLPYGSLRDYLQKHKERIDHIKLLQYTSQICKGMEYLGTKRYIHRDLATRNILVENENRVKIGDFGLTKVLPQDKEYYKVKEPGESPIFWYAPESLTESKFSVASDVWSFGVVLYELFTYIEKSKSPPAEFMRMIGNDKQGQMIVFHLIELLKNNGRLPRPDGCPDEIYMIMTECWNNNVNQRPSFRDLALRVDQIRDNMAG
Chain of Protein kinase C delta type (Homo sapiens) (Q05655 whole entry, looked up): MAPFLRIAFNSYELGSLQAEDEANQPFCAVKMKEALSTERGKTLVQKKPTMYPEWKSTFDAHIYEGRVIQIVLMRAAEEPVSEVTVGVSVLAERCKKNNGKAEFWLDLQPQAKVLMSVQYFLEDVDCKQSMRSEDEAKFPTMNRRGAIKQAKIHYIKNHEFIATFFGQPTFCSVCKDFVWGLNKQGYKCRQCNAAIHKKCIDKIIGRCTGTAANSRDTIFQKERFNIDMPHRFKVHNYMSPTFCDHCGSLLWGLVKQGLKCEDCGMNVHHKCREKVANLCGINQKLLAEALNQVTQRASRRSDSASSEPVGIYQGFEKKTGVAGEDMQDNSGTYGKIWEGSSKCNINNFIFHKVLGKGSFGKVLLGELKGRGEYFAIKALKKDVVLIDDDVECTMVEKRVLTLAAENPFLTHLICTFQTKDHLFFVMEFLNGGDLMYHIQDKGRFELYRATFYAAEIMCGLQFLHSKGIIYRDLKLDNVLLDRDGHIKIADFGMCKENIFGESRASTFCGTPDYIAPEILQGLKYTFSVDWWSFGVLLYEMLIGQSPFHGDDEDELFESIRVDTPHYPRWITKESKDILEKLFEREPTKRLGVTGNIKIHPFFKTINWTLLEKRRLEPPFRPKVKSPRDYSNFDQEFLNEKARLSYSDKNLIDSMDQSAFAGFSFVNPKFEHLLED
Chain of Serine/threonine-protein kinase 38-like (Homo sapiens) (Q9Y2H1 2-464 limits assumed): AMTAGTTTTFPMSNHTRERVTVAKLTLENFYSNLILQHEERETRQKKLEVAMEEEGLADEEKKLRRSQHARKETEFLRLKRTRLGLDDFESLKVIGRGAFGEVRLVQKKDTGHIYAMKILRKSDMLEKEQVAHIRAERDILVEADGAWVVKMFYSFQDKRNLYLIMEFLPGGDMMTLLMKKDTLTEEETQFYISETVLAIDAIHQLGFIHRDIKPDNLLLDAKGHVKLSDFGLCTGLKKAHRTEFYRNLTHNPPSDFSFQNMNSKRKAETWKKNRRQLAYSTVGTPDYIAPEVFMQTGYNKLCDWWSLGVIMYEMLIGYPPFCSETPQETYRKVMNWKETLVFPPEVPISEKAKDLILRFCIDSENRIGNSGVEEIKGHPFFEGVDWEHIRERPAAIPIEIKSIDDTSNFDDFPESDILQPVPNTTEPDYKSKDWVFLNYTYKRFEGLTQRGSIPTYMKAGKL
Chain of Wee1-like protein kinase 2 (Homo sapiens) (P0C1S8 whole entry, looked up): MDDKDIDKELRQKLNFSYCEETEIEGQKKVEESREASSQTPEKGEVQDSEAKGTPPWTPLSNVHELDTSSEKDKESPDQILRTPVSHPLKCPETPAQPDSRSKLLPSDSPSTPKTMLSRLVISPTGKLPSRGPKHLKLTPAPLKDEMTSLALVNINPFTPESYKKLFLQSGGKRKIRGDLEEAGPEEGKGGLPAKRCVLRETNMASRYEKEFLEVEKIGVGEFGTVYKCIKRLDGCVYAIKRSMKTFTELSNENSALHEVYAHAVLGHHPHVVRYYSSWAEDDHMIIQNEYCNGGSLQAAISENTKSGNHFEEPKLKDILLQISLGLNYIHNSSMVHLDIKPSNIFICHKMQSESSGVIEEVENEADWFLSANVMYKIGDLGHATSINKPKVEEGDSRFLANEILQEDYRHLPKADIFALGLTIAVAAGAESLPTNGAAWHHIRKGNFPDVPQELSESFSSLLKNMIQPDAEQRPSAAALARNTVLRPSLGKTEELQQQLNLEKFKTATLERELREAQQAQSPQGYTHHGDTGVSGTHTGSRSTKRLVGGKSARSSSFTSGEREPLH

Structure (SMILES): Nc1cnc(N2CCc3cc(S(=O)(=O)Nc4c(F)cc(Cl)cc4F)cc(N4CCCC4=O)c32)nc1 [TP-020n]
% of control [1]: 100%

Structure (SMILES): O[C@H]1CC[C@H](Nc2ncc3nc(Nc4c(F)cc(F)cc4F)n([C@H]4CCOC4)c3n2)CC1
% of control [2]: 97%

Structure (SMILES): CNC(=O)Nc1ccc(-c2nc(N3CC4CCC(C3)O4)c3cnn(C4CCC5(CC4)OCCO5)c3n2)cc1
% of control [3]: 100% | % of control [4]: 100%

Structure (SMILES): C=CC(=O)Nc1cc(-n2c(=O)ccc3cnc4ccc(-c5ccc(NS(C)(=O)=O)cc5)cc4c32)ccc1C
% of control ([5]; at 1 µM): 100% | % of control ([5]; at 10 µM): 50%

Structure (SMILES): COCC(=O)NC/C=C/c1ccc2ncnc(Nc3ccc(Oc4ccc(C)nc4)c(C)c3)c2c1 [CP-724714]
% of control [6]: 81%

Structure (SMILES): Cc1cc([C@@H](C)Nc2ccccc2C(=O)O)c2nc(N3CCOCC3)cc(=O)n2c1 [AZD-6482]
% of control [7]: 93%

% of inhibition [8]: 2.6% | % of inhibition [9]: -8.7%
Structure (SMILES): CC[C@@H]1[C@H](F)C(=O)N[C@@H]1COc1nccc2cc(C(N)=O)c(OC)cc12 [ZIMLOVISERTIB]

% of control ([10]; at 1 µM): 83% | % of control ([10]; at 5 µM): 69%
Structure (SMILES): C=CC(=O)Nc1cccc(C(=O)Nc2ccc(Nc3cc(-c4[nH]c(SC)nc4C)ccn3)cc2)c1

Structure (SMILES): O=C(NOC[C@H](O)CO)c1ccc(F)c(F)c1Nc1ccc(I)cc1F
% of control [11]: 100%

Structure (SMILES): CCC(=O)N1CCN(c2ccc(-n3c(=O)ccc4cnc5ccc(-c6cnc7ccccc7c6)cc5c43)cc2C(F)(F)F)CC1
% of control [12]: 99%
